Source: ChEMBL document CHEMBL5465560, “Selectivity Literature for EUbOPEN Chemogenomic Library” (2024)

Assays:
[1] = molecular target: Serine/threonine-protein kinase Nek7 (Homo sapiens) (UniProt Q8TDX7); assay: Selectivity interaction (Kinase panel (KiNativ target engagement assay in Jurkat cells)) EUB0001635a NEK7; assay type: cell-based; conditions: Selectivity number of off-targets 0.0, Selectivity number of targets 233.0, Source Knowledge https://www.sciencedirect.com/science/article/pii/S2451945619300674?via%3Dihub, at 1 µM
[2] = molecular target: STE20-like serine/threonine-protein kinase (Homo sapiens, UniProt Q9H2G2); assay: Selectivity interaction (Kinase panel (KiNativ target engagement assay in Jurkat cells)) EUB0001635a SLK; assay type: cell-based; conditions: Selectivity number of off-targets 0.0, Selectivity number of targets 233.0, Source Knowledge https://www.sciencedirect.com/science/article/pii/S2451945619300674?via%3Dihub, at 1 µM
[3] = molecular target: T1, Ribosomal protein S6 kinase alpha-3 (Homo sapiens, UniProt P51812); assay: Selectivity interaction (KinomeScan (DiscoverX)) EUB0000311b RPS6KA3; conditions: at 1 µM
[4] = molecular target: Serine/threonine-protein kinase PAK 2 (Homo sapiens) (UniProt Q13177); assay: Selectivity interaction (KinomeScan (DiscoverX)) EUB0000045b PAK2
[5] = molecular target: Tyrosine-protein kinase JAK2 (Homo sapiens, UniProt O60674); assay: Selectivity interaction (Kinase panel (Z-LYTE Assay)) EUB0001632a JAK2; conditions: at 10 µM
[6] = molecular target: Serine/threonine-protein kinase 33 (Homo sapiens) (UniProt Q9BYT3); conditions: at 10 µM
[7] = molecular target: High affinity nerve growth factor receptor (Homo sapiens, UniProt P04629); assay: Selectivity interaction (Upstate Kinase Profiler service (Millipore)) EUB0000056c NTRK1; conditions: at 1 µM
[8] = molecular target: Tyrosine-protein kinase BTK (Homo sapiens, UniProt Q06187); assay: Selectivity interaction (ActivX KiNativ screen (ex vivo kinase selectivity in human PBMCs)) EUB0001619a BTK; assay type: cell-based; conditions: PBMC, at 1 µM
[9] = molecular target: Dual specificity protein kinase CLK3 (Homo sapiens, UniProt P49761); assay: Selectivity interaction (KinomeScan (DiscoverX)) EUB0000618a CLK3; conditions: at 10 µM
[10] = molecular target: Serine/threonine-protein kinase MARK2 (Homo sapiens) (UniProt Q7KZI7); assay: Selectivity interaction (ActivX KiNativ screen (kinase selectivity in THP-1 cell lysates)) EUB0000639a MARK2; assay type: subcellular; conditions: lysate, at 0.04 µM
[11] = molecular target: T2, Tyrosine-protein kinase Tec (Homo sapiens) (UniProt P42680); assay: Selectivity interaction (ActivX KiNativ screen (kinase selectivity in THP-1 cell lysates)) EUB0000639a TEC; assay type: subcellular; conditions: lysate, at 5 µM
T2 sequence (whole entry): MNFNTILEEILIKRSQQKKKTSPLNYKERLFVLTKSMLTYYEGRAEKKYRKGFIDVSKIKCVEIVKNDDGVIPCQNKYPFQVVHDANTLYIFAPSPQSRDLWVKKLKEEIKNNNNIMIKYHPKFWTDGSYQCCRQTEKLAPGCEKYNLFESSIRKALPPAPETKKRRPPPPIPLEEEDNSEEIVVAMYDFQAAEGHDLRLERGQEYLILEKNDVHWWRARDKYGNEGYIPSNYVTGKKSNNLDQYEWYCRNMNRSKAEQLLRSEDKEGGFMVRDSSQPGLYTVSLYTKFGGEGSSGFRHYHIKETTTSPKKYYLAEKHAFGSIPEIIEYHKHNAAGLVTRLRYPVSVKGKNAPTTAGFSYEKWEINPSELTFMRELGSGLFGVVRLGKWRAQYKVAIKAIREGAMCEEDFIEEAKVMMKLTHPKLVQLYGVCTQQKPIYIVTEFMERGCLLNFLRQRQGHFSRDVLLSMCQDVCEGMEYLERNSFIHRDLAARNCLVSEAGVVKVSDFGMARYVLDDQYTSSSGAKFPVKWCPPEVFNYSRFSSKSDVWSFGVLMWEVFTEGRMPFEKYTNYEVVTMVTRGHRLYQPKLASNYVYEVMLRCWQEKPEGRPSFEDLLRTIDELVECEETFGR

[12] = molecular target: Tyrosine-protein kinase Fer (Homo sapiens) (UniProt P16591); assay: Selectivity interaction (KinomeScan (DiscoverX)) EUB0000655a FER; conditions: at 10 µM
[13] = molecular target: T1, Ribosomal protein S6 kinase alpha-3; conditions: at 10 µM
[14] = molecular target: Serine/threonine-protein kinase 10 (Homo sapiens) (UniProt O94804); conditions: at 10 µM
[15] = molecular target: Tyrosine-protein kinase SYK (Homo sapiens, UniProt P43405); assay: Selectivity interaction (KinomeScan (DiscoverX)) EUB0000092b SYK; conditions: at 10 µM
[16] = molecular target: T3, Mitogen-activated protein kinase kinase kinase 12 (Homo sapiens) (UniProt Q12852); assay: Selectivity interaction (Ambit KINOMEscan and KiNATiv profiling in Jurkat cells) EUB0000090b MAP3K12; assay type: cell-based; conditions: at 1 µM
T3 sequence (whole entry): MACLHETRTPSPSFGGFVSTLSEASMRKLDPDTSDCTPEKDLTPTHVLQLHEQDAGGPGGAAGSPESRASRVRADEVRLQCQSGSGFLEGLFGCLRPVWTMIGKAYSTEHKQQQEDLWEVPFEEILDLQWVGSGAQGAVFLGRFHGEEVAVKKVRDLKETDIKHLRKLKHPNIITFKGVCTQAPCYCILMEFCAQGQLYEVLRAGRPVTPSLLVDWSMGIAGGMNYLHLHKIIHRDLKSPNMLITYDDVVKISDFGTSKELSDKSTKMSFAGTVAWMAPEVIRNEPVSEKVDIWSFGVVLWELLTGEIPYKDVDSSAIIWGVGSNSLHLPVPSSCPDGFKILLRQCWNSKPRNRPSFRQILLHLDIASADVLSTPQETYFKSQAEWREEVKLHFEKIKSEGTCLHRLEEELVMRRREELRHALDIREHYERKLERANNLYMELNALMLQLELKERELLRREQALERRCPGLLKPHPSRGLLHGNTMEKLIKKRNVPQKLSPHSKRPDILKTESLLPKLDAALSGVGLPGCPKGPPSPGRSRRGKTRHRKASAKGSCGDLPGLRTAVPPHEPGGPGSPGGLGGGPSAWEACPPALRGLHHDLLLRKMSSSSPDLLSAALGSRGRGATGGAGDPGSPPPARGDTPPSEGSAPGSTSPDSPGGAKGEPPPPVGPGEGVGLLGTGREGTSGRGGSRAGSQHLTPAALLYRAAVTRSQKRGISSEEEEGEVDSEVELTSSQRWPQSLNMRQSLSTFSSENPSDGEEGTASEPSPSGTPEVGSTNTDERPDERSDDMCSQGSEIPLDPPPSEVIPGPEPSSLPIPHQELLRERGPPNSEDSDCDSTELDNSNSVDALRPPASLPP

[17] = molecular target: TGF-beta receptor type-2 (Homo sapiens) (UniProt P37173); assay: Selectivity interaction (Ambit KINOMEscan and KiNATiv profiling in Jurkat cells) EUB0000090b TGFBR2; assay type: cell-based; conditions: at 1 µM
Sequence of TGF-beta receptor type-2 (Homo sapiens) (P37173 whole entry): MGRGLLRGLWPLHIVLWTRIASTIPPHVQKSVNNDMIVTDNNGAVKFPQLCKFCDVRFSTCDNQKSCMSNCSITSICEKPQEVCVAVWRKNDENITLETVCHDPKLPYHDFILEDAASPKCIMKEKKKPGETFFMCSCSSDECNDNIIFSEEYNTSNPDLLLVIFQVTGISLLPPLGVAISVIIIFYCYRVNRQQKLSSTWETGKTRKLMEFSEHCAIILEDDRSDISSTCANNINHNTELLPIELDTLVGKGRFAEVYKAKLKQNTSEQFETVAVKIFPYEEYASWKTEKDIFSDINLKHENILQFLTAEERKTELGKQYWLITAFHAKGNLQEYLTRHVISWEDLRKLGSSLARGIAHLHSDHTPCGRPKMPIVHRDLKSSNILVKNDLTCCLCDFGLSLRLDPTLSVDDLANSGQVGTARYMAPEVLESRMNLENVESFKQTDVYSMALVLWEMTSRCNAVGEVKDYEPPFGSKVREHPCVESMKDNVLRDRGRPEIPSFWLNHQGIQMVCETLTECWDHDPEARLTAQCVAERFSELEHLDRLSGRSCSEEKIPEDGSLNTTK

T1 sequence (P51812 whole entry): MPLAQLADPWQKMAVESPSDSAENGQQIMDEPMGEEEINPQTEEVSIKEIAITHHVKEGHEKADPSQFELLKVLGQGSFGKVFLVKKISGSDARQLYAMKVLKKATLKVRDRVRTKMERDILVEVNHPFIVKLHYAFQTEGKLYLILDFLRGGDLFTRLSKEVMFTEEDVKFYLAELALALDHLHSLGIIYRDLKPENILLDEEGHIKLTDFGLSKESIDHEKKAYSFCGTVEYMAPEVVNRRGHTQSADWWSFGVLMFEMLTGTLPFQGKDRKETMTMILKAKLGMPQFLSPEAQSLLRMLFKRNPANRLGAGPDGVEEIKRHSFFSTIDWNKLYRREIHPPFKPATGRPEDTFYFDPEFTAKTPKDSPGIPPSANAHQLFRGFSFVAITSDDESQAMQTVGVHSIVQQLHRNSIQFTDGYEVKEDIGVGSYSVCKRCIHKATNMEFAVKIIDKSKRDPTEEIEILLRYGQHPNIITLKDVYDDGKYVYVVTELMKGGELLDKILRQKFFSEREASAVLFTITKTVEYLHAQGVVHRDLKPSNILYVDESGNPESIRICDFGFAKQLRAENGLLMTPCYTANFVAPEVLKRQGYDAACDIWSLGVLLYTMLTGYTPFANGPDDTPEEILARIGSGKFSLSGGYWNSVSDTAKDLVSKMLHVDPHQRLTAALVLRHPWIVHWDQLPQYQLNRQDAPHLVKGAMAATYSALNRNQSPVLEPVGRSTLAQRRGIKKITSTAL
Sequence of Serine/threonine-protein kinase PAK 2 (Homo sapiens) (Q13177 whole entry): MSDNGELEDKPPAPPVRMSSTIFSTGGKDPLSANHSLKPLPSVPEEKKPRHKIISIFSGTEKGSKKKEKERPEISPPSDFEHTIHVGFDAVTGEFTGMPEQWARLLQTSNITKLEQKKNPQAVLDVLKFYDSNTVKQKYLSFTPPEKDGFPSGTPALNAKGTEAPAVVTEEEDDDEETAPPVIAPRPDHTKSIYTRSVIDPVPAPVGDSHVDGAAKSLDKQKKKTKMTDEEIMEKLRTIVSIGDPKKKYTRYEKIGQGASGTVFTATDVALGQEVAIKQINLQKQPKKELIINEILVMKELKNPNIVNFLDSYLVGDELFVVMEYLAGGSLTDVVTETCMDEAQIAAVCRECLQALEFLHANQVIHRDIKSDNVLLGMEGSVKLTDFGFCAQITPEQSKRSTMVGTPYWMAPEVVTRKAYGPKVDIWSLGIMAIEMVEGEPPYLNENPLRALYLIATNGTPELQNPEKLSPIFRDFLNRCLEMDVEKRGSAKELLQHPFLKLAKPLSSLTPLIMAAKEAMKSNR
Sequence of STE20-like serine/threonine-protein kinase (Q9H2G2 whole entry, looked up): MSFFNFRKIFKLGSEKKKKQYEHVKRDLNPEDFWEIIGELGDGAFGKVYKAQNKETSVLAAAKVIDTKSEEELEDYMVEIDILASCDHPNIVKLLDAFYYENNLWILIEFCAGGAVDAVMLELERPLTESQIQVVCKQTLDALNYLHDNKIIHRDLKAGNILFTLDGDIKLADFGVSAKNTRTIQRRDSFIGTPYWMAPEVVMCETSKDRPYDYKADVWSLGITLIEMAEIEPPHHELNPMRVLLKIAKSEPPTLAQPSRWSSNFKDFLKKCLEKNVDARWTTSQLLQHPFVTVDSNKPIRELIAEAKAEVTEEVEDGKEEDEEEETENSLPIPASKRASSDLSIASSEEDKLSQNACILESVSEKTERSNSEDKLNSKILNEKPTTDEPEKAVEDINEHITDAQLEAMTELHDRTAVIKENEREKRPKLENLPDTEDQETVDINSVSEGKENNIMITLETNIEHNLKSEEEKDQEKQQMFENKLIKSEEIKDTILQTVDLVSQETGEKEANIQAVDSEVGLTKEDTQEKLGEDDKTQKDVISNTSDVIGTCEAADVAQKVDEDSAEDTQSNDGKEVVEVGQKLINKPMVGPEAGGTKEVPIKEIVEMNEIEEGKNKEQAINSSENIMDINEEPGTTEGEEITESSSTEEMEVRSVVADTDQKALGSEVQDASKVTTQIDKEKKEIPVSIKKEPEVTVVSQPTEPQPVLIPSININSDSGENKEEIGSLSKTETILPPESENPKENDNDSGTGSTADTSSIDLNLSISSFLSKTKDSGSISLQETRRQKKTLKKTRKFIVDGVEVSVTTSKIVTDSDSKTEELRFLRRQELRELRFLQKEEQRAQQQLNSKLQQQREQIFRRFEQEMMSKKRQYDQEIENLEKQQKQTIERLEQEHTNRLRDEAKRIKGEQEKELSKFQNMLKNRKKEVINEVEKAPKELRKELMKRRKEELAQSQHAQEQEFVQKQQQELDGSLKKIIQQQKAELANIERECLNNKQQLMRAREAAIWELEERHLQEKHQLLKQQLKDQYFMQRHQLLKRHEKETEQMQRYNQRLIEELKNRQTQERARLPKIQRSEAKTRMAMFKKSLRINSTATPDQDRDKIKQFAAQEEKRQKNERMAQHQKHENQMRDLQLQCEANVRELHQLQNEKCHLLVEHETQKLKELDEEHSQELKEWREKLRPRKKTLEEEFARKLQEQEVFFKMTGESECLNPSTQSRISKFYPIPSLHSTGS
Sequence of Serine/threonine-protein kinase MARK2 (Homo sapiens) (Q7KZI7 whole entry): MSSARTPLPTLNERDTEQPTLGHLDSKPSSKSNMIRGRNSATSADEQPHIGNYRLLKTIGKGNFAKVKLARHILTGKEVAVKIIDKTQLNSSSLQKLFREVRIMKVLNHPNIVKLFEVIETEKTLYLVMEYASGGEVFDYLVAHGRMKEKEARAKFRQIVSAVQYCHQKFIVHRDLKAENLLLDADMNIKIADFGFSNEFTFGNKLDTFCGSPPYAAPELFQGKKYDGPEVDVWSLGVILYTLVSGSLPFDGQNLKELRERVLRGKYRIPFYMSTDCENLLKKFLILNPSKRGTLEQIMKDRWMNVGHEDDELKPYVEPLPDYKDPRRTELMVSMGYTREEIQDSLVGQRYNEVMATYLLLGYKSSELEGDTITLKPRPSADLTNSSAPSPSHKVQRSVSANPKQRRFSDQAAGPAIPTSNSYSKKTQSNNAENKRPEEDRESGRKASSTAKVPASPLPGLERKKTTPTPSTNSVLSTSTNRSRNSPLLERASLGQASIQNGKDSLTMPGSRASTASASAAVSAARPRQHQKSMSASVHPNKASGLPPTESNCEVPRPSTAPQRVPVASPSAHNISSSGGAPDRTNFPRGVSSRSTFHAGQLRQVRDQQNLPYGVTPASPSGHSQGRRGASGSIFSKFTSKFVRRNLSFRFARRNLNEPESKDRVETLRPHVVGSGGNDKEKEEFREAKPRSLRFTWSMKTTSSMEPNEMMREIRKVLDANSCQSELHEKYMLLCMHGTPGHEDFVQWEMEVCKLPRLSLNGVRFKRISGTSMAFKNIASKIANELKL
Sequence of Tyrosine-protein kinase Fer (Homo sapiens) (P16591 whole entry, looked up): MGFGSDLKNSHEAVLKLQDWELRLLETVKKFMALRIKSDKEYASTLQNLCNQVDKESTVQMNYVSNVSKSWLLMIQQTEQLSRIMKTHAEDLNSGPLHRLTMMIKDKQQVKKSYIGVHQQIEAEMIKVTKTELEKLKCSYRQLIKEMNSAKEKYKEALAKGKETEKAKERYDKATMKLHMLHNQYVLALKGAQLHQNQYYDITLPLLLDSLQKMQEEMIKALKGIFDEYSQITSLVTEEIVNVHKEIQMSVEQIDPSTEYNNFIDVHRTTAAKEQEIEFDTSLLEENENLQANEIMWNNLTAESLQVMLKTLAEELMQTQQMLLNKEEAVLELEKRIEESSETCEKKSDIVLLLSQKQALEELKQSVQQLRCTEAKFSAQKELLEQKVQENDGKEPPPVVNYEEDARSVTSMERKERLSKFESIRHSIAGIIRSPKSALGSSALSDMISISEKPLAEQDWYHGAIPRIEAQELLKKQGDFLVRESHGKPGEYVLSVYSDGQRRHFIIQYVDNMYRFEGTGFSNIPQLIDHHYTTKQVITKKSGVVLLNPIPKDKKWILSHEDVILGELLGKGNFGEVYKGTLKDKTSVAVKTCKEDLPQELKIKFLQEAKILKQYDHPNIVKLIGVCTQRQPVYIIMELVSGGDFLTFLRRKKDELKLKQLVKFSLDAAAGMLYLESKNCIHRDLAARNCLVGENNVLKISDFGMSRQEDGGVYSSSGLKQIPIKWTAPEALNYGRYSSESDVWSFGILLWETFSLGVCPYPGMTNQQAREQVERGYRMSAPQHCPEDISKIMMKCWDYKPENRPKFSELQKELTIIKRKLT
Sequence of Serine/threonine-protein kinase Nek7 (Homo sapiens) (Q8TDX7 whole entry, looked up): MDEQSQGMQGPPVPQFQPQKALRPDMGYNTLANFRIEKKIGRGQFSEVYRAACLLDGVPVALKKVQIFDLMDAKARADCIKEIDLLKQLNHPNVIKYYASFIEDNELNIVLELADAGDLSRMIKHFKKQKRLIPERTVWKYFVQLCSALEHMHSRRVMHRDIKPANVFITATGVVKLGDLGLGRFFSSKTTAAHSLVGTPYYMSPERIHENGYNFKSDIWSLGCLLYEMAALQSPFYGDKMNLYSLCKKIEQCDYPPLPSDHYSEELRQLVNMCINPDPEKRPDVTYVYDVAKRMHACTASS

**Q.** What does the source list for `C=CC(=O)Nc1ccc(C(=O)Nc2[nH]nc3c2CN(C(=O)N[C@H](CN(C)C)c2ccccc2)C3(C)C)cc1`?
**A.** % of engagement [1]: -12.5%; % of engagement [2]: 13%

**Q.** How did the % of control [3] turn out when `CCc1ccccc1C(=O)Nc1n[nH]c2c(C)c(F)c(C3C(C#N)=C(C)N(C)C(C)=C3C#N)cc12` [BAY-3827] was run?
**A.** 0.3%

**Q.** How did the % of control ([4]; at 1 µM) turn out when `C=CC(=O)Nc1cc(-n2c(=O)ccc3cnc4ccc(-c5ccc(NS(C)(=O)=O)cc5)cc4c32)ccc1C` was run?
**A.** 78%

**Q.** What about the % of control ([4]; at 10 µM) of the same compound?
**A.** 92%

**Q.** For `Cn1cc(-n2cnc3c(NCc4nc5cc(Cl)c(Cl)cc5[nH]4)nc(N4CCOCC4)nc32)cn1`, which % of control [5] is on record?
**A.** 3.68%

**Q.** For `Cc1cc([C@@H](C)Nc2ccccc2C(=O)O)c2nc(N3CCOCC3)cc(=O)n2c1` [AZD-6482], which % of control [6] is on record?
**A.** 100%

**Q.** With `Cc1ccc(-c2ccc3c(ccc4sc5c(c43)NC[C@@H](C)NC5=O)n2)cn1` as the compound, how does the % of inhibition [7] read?
**A.** 3%

**Q.** `N#Cc1cccc(-c2c[nH]c3ncnc(N4CCOCC4)c23)c1` was tested. Which % of inhibition [8] did it give?
**A.** 10%

**Q.** With `O[C@H]1CC[C@H](Nc2ncc3nc(Nc4c(F)cc(F)cc4F)n([C@H]4CCOC4)c3n2)CC1` as the compound, how does the % of control [9] read?
**A.** 93%

**Q.** With `CC[C@@H]1[C@H](F)C(=O)N[C@@H]1COc1nccc2cc(C(N)=O)c(OC)cc12` [ZIMLOVISERTIB] as the compound, how does the % of inhibition [10] read?
**A.** 8.3%

**Q.** What about the % of inhibition [11] of the same compound?
**A.** -18.7%

**Q.** With `CN(C)CCOc1ccc(-c2nc(-c3ccncc3)c(-c3ccc4c(c3)CC/C4=N\O)[nH]2)cc1` as the compound, how does the % of control [12] read?
**A.** 100%

**Q.** How did the % of control [13] turn out when `CCN(CC)CCCCNc1ncc2cc(-c3cc(OC)cc(OC)c3)c(NC(=O)NC(C)(C)C)nc2n1` was run?
**A.** 100%

**Q.** What about the % of control [14] of the same compound?
**A.** 100%

**Q.** Which % of control [15] does the source give for `CCC(=O)N1CCN(c2ccc(-n3c(=O)ccc4cnc5ccc(-c6cnc7ccccc7c6)cc5c43)cc2C(F)(F)F)CC1` here?
**A.** 78%

**Q.** How did the % of control [16] turn out when `CN(C)C/C=C/C(=O)Nc1ccc(C(=O)N2CCCC(Nc3ncc(Cl)c(-c4c[nH]c5ccccc45)n3)C2)cc1` (stereo not drawn) was run?
**A.** 89%

**Q.** What about the % of control [17] of the same compound?
**A.** 87%
